This is an account of results in publication PMC5936891, “A focused library synthesis and cytotoxicity of quinones derived from the natural product bolinaquinone” (Royal Society Open Science, 2018).

The test system of series [1] is HCT-116 colon carcinoma cells. The following applies: cited from earlier work.
Series [2] has as its system L5178Y mouse lymphoma cells. Further details: method as in PMID 19995673, PMID 3839712. The following applies: cited from earlier work.
The test system of series [3] is HeLa. Further details: method as in PMID 19995673, PMID 3839712. Conditions: cited from earlier work.
Series [4] concerns HT-29 colorectal. Also on record: method as in ref 21 = [21]; 21 Rodríguez J , Quiñoá E , Riguera R , Peters BM , Abrell LM , Crews P 1992 The structures and stereochemistry of cytotoxic sesquiterpene quinones from Dactylospongia elegans . Tetrahedron 48 , 6667. The following applies: cited from earlier work.
Series [5] deals with melanoma B16/F10. Further details: method as in ref 21 = [21]; 21 Rodríguez J , Quiñoá E , Riguera R , Peters BM , Abrell LM , Crews P 1992 The structures and stereochemistry of cytotoxic sesquiterpene quinones from Dactylospongia elegans . Tetrahedron 48 , 6667. The following applies: cited from earlier work.
Series [6] deals with P-388 leukaemia cells. Also on record: method as in ref 21 = [21]; 21 Rodríguez J , Quiñoá E , Riguera R , Peters BM , Abrell LM , Crews P 1992 The structures and stereochemistry of cytotoxic sesquiterpene quinones from Dactylospongia elegans . Tetrahedron 48 , 6667. Conditions: cited from earlier work.
In series [7] the test system is A-549 lung. Further details: method as in ref 21 = [21]; 21 Rodríguez J , Quiñoá E , Riguera R , Peters BM , Abrell LM , Crews P 1992 The structures and stereochemistry of cytotoxic sesquiterpene quinones from Dactylospongia elegans . Tetrahedron 48 , 6667. The following applies: cited from earlier work.
Series [8] relates to leukaemia L-1210. Further details: method as in ref 22 = [22]; 22 Shigemori H , Madono T , Sasaki T , Mikami Y , Kobayashi JI 1994 Nakijiquinones A and B, new antifungal sesquiterpenoid quinones with an amino acid residue from an Okinawan marine sponge . Tetrahed. Conditions: read-out: GI50 leukaemia L-1210; cited from earlier work.
Series [9] relates to epidermoid KB cell line. Also on record: method as in ref 22 = [22]; 22 Shigemori H , Madono T , Sasaki T , Mikami Y , Kobayashi JI 1994 Nakijiquinones A and B, new antifungal sesquiterpenoid quinones with an amino acid residue from an Okinawan marine sponge . Tetrahed. Conditions: cited from earlier work.
For series [10], the system named is HepG2 hepatoma cancer cell line. Further details: method as in ref 23 = [23]; 23 Jiao W-H , Xu T-T , Yu H-B , Mu F-R , Li J , Li Y-S , Yang F , Han B-N , Lin H-W 2014 Dysidaminones A-M, cytotoxic and NF-B inhibitory sesquiterpene aminoquinones from the South China Sea sponge, D. Conditions: cited from earlier work.
Series [11] has as its system NCI-H929 myeloma. Further details: method as in ref 23 = [23]; 23 Jiao W-H , Xu T-T , Yu H-B , Mu F-R , Li J , Li Y-S , Yang F , Han B-N , Lin H-W 2014 Dysidaminones A-M, cytotoxic and NF-B inhibitory sesquiterpene aminoquinones from the South China Sea sponge, D. The following applies: cited from earlier work.
Series [12] relates to U87 (glioblastoma). Nature of the series: MTT in vitro growth inhibition assay, U87. Format: cell-based.
Series [13] concerns SMA (spontaneous murine astrocytoma). Description: MTT in vitro growth inhibition assay, SMA. Format: cell-based. Conditions: Mus musculus.
In series [14] the test system is SJ-G2 (glioblastoma). Description: MTT in vitro growth inhibition assay, SJ-G2. Type of series: cell-based. The following applies: 25 µM of drug, 72 h, read-out: Percentage of Cell Growth Inhibition SJ-G2.
For series [15], the system named is HT29 (colon carcinoma). Description: MTT in vitro growth inhibition assay, HT29. The following applies: Homo sapiens. Type of series: cell-based.
Series [16] relates to MIA (pancreatic carcinoma). Description: MTT in vitro growth inhibition assay, MIA. Format: cell-based.
Series [17] concerns A431 (skin carcinoma). Description: MTT in vitro growth inhibition assay, A431. Format: cell-based. Conditions: Homo sapiens.
Series [18] relates to panel of 11 cancer cell lines and one normal cell line. Description: Cytotoxicity across the whole cell line panel (MTT). Type of series: cell-based. The source says:
With the desired bolinaquinone analogues 12–43 in hand, we examined their cytotoxicity against a panel of 11 tumour cell lines: HT29 (colon carcinoma), U87 and SJ-G2 (glioblastoma), MCF-7 (breast carcinoma), A2780 (ovarian carcinoma), H460 (lung carcinoma), A431 (skin carcinoma), Du145 (prostate carcinoma), BE2-C (neuroblastoma), MIA (pancreatic carcinoma), SMA (spontaneous murine astrocytoma) and a normal breast cell line (MCF10A). The inclusion of the MCF-10A cell line allowed a determination of a crude measure of relative toxicity while noting that the ultimate arbiter of toxicity requires in vivo evaluation. All analogues were initially screened at a 25 µM drug concentration.
Stock solutions were prepared as follows and stored at −20°C: drugs were stored as 40 mM solutions in DMSO. All cell lines were cultured in a humidified atmosphere 5% CO2 at 37°C. The cancer cell lines were maintained in Dulbecco's modified Eagle's medium (DMEM) (Trace Biosciences, Australia) supplemented with 10% fetal bovine serum, 10 mM sodium bicarbonate, penicillin (100 IU ml^−1), streptomycin (100 µg ml^−1) and glutamine (4 mM). The non-cancer MCF10A cell line was cultured in DMEM:F12 (1 : 1) cell culture media, 5% heat-inactivated horse serum, supplemented with penicillin (50 IU ml^−1), streptomycin (50 µg ml^−1), 20 mM Hepes, L-glutamine (2 mM), epidermal growth factor (20 ng ml^−1), hydrocortisone (500 ng ml^−1), cholera toxin (100 ng ml^−1) and insulin (10 ug ml^−1).
Cells in logarithmic growth were transferred to 96-well plates. Cytotoxicity was determined by plating cells in duplicate in 100 µl medium at a density of 2500–4000 cells per well. On day 0 (24 h after plating), when the cells were in logarithmic growth, 100 μl of medium with or without the test agent was added to each well. After 72 h, drug exposure growth inhibitory effects were evaluated using the MTT (3-[4,5-dimethylthiazol-2-yl]-2,5-diphenyl-tetrazolium bromide) assay and the absorbance read at 540 nm. Percentage growth inhibition was determined at a fixed drug concentration of 25 µM. A value of 100% is indicative of complete cell growth inhibition. Those analogues showing appreciable percentage growth inhibition underwent further dose–response analysis allowing for the calculation of a GI50 value. This value is the drug concentration at which cell growth is 50% inhibited based on the difference between the optical density values on day 0 and those at the end of drug exposure.

For series [19], the system named is MCF-7 (breast carcinoma). Nature of the series: MTT in vitro growth inhibition assay, MCF-7. Type of series: cell-based. Conditions: Homo sapiens.
Series [20] has as its system A2780 (ovarian carcinoma). Nature of the series: MTT in vitro growth inhibition assay, A2780. Type of series: cell-based. The following applies: Homo sapiens.
Series [21] concerns H460 (lung carcinoma). Description: MTT in vitro growth inhibition assay, H460. Type of series: cell-based. Conditions: Homo sapiens.
The subject of series [22] is BE2-C (neuroblastoma). Nature of the series: MTT in vitro growth inhibition assay, BE2-C. Format: cell-based. Conditions: Homo sapiens, BE(2)-C, 72 h.
In series [23] the test system is Du145 (prostate carcinoma). Description: MTT in vitro growth inhibition assay, Du145. Type of series: cell-based. The following applies: Homo sapiens.
Series [24] has as its system MCF10A (normal breast cell line). Nature of the series: MTT in vitro growth inhibition assay, MCF10A. Type of series: cell-based. The following applies: Homo sapiens, MCF-10A.

Where two headings read alike, the source gives them in different places.

In the case of `COC1=CC(=O)C(O)=C(C[C@@]2(C)CC[C@]3(C)C(C)=CCC[C@H]3[C@H]2C)C1=O` [compound 1, bolinaquinone], the GI50 in series [1] (50% growth inhibition) is 5300 nM.

Take `CC1=CCC[C@H]2[C@](C)(CC3=CC(=O)C=CC3=O)[C@@H](C)CC[C@]12C` [compound 2, avarone]: in series [2], the “ED50 L5178Y mouse lymphoma cells” value was 620 ± 110 nM. The concentration for 50% growth inhibition (GI50) in series [3] is 26800 ± 3000 nM.

For the molecule `COC1=CC(=O)C(O)=C(C[C@@]2(C)[C@H](C)[C@@H]3CCCC(C)(C)C3=C[C@@H]2C)C1=O` [compound 3, mamanuthaquinone], the GI50 in series [1] is 5580 nM.

As to `C=C1CCC[C@H]2[C@](C)(CC3=C(O)C(=O)C=C(OC)C3=O)[C@@H](C)CC[C@]12C` [compound 4, epi-ilimaquinone], the GI50 was 9480 nM in series [4], 3100 nM in series [5], 6140 nM in series [6] and 2510 nM in series [7].

`CC1=CCC[C@H]2[C@](C)(CC3=C(O)C(=O)C=C(NCC(=O)O)C3=O)[C@@H](C)CC[C@]12C` [compound 5, nakijiquinone A]: the GI50 in [8] was 9460 nM. Further, the “GI50 epidermoid KB” value in series [9] is 18920 nM.

As for `CC1=CCC[C@H]2[C@](C)(CC3=CC(=O)C=C(NCC(C)C)C3=O)[C@@H](C)CC[C@]12C` [compound 6, dysidaminone E-5], the GI50 in [10] was 940 nM.

`CC1=CCC[C@H]2[C@](C)(CC3=CC(=O)C=C(NCCc4ccccc4)C3=O)[C@@H](C)CC[C@]12C` [compound 7, 18-phenethylaminoavarone]: the concentration for 50% growth inhibition (GI50) in [11] was 1760 nM.

As to `CCCNC1=C(c2ccc3ccccc3c2)C(=O)C(NCCC)=C(c2cccc3ccccc23)C1=O` [compound 43], the melting point was 210 to 213 °C. Moreover, the inhibition at 25 µM in series [12] (25 µM of drug, 72 h, read-out: Percentage of Cell Growth Inhibition U87) came to 91 ± 1%. The GI50 in series [12] (72 h drug exposure) is 2100 ± 1000 nM. For the same molecule, in series [13] (25 µM of drug, 72 h, read-out: Percentage of Cell Growth Inhibition SMA), the inhibition at 25 µM came out at 80 ± 7%. The GI50 in [13] (72 h drug exposure) was found to be 3900 ± 3500 nM. Further, the inhibition at 25 µM in [14] came to 55 ± 1%. For the same molecule, the inhibition at 25 µM in series [15] (HT-29, 25 µM of drug, 72 h, read-out: Percentage of Cell Growth Inhibition HT29) was found to be 81 ± 2%. In series [15] (HT-29, 72 h drug exposure), this molecule came in with a concentration for 50% growth inhibition (GI50) of 80 nM. In addition, the inhibition at 25 µM in [16] (25 µM of drug, 72 h, read-out: Percentage of Cell Growth Inhibition MIA) is 90 ± 2%. Further, the GI50 in [16] (72 h drug exposure) came to 100 nM. Besides, in series [17] (A-431, 25 µM of drug, 72 h, read-out: Percentage of Cell Growth Inhibition A431), the inhibition at 25 µM was found to be 92 ± 1%. In series [17] (A-431, 72 h, 72 h drug exposure), this molecule displayed a concentration for 50% growth inhibition (GI50) of 110 nM. Besides, the “activity at the initial screening concentration (to proceed to GI50 determination)” value in series [18] (25 µM single dose) is “sufficient activity”. Further, in series [18] (41 vs parent 29, 43 vs parent 33, on introduction of amine substituents), the “potency enhancement over parent analogue” value is listed as “greater than or equal to 20 fold”. Moreover, in series [18] (average over the cell line panel, read-out: average GI50), the GI50 is 690 nM. The inhibition at 25 µM in [19] (MCF7, 25 µM of drug, 72 h, read-out: Percentage of Cell Growth Inhibition MCF-7) stood at 77 ± 2%. The GI50 in series [19] (MCF7, 72 h drug exposure) is 170 ± 100 nM. The inhibition at 25 µM in series [20] (25 µM of drug, 72 h, read-out: Percentage of Cell Growth Inhibition A2780) is 94 ± 1%. In [20] (72 h drug exposure), this molecule came in with a GI50 of 140 ± 100 nM. For the same molecule, in series [21] (NCI-H460, 25 µM of drug, 72 h, read-out: Percentage of Cell Growth Inhibition H460), the inhibition at 25 µM was 76 ± 1%. Also, in series [21] (NCI-H460, 72 h drug exposure), the GI50 was 110 nM. In addition, the inhibition at 25 µM in series [22] (25 µM of drug, read-out: Percentage of Cell Growth Inhibition BE2-C) was found to be 44 ± 6%. In series [22] (72 h drug exposure), it took 80 nM to inhibit growth by half (GI50). In addition, the inhibition at 25 µM in series [23] (DU-145, 25 µM of drug, 72 h, read-out: Percentage of Cell Growth Inhibition Du145) is 80 ± 2%. In addition, the GI50 in series [23] (DU-145, 72 h, 72 h drug exposure) stood at 160 ± 100 nM. The inhibition at 25 µM in series [24] (25 µM of drug, 72 h, read-out: Percentage of Cell Growth Inhibition MCF10A) stood at 89 ± 2%. Further, the GI50 in [24] (normal breast cell line, 72 h drug exposure) came to 70 nM.
